Experimental data from US5120835A, “Saccharide derivatives of protocatechualdehyde” (Kureha Chemical Industry Co., Ltd., priority 1989, dated 1992).
Like-named read-outs stand apart in the source and are kept apart here.

Legend:
[1] = Acute toxicity in mice (LD50, Litchfield-Wilcoxon method); details: mouse, in vivo, Jcl:ICR female mice, observed for 7 days
Procedure: The prescribed amounts of the test drugs dispersed in 0.3% CMC aqueous solution at a rate of 20 mg/ml for oral administration and the test drugs dissolved in 10% ethanol isotonic sodium chloride solution as a rate of 200 mg/ml for intraperitoneal administration were applied using gastric probes and syringes, respectively.

granuloma growth = assay: Granuloma growth inhibiting effect (paper disk implanted subcutaneously in rats); type: in vivo, male Donryu rats; details: oral, 10 days; for Granuloma Dry weight (mean): control 131.9 mg
Procedure: Effects of inhibiting granuloma growth were investigated by the method proposed by Fujimura et al. [Oyo Yakuri, 19 (3), 329 (1980)], using five-week old male Donryu rats. As paper disks, filter papers measuring 13 mm.0. and 28 mg and soaked in […] CMC solution (containing 0.1 mg/ml of 1 million unit dihydroxystreptomycin and penicillin, respectively) were used. A paper disk was implanted subcutaneously in the back of the rat under anesthesia. The test drugs dispersed in 0.3% CMC solutions were administered orally for 10 days; then, on the 11th day the granulomas were removed and their weights were measured. To the control group were administered the original 0.3% CMC solution containing no test drug.

male rats = details: DRUGS IN JAPAN (ETHICAL DRUGS), 9th Edition (1985), p.105; cited from earlier work
[2] = Toxicity compared in words; type: in vivo; details: from LD50 of reference against LD50 of Table 1
male mice = details: DRUGS IN JAPAN (ETHICAL DRUGS), 9th Edition (1985), p.105; cited from earlier work
[3] = in vivo; cited from earlier work
leukocytic migration = details: in vitro, low concentration level; cited from earlier work
[4] = test system: blood platelet agglutination; details: in vitro, low concentration level; cited from earlier work
[5] = ip, intraperitoneal, dissolved in 10% ethanol isotonic sodium chloride solution, read-out: LD50, Intraperitoneal Administration
[6] = oral, dispersed in 0.3% CMC aqueous solution, read-out: LD50, Oral Administration

Row | Compound | LD50 at 168 h [1, 5] [mg/kg] | LD50 at 168 h [1, 6] [mg/kg] | Granuloma Inhibition rate (granuloma growth; 10 mg/kg/day) [%] | Granuloma Dry weight (mean) (granuloma growth; 10 mg/kg/day) [mg] | Granuloma Inhibition rate (granuloma growth; 50 mg/kg/day) [%] | Granuloma Dry weight (mean) (granuloma growth; 50 mg/kg/day) [mg] | LD50 value (male rats) [mg/kg] | Toxicity compared with PAL and the compounds of the present invention (in words) [2] | Granuloma Inhibition rate (granuloma growth; 3 mg/kg/day) [%] | Granuloma Dry weight (mean) (granuloma growth; 3 mg/kg/day) [mg] | LD50 value (male mice) [mg/kg] | Metabolic rate (in words) [3] | Inhibiting leukocytic migration (in words) (leukocytic migration) | Inhibiting blood platelet agglutination (in words) [4]
1 | CO[C@H]1O[C@@H]2COC(c3ccc(OC(=O)c4ccccc4)c(OC(=O)c4ccccc4)c3)O[C@H]2[C@H](O)[C@H]1O (stereo partly drawn) [Ia1, Methyl-4,6-O-(3',4'-dibenzoyloxybenzylidene)-α-D-glucopyranoside] | 1900 | > 4000 | 29.8 | 92.6 | 43.7 | 74.3 | – | – | – | – | – | – | – | –
2 | CO[C@H]1O[C@@H]2COC(c3ccc(O)c(O)c3)O[C@H]2[C@H](O)[C@H]1O (stereo partly drawn) [Ib1, Methyl-4,6-O-(3',4'-dihydroxybenzylidene)-α-D-glucopyranoside] | > 3000 | > 4000 | 30.7 | 91.4 | 50.0 | 66.0 | – | – | – | – | – | – | – | –
3 | COc1ccc2c(c1)c(CC(=O)O)c(C)n2C(=O)c1ccc(Cl)cc1 [Indomethacin, indomethacin] | – | – | – | – | – | – | 29 | more toxic than both PAL and the compounds of the present invention | 45.9 | 71.3 | 30.2 | – | – | –
4 | O=Cc1ccc(O)c(O)c1 [PAL, protocatechualdehyde] | – | – | – | – | 34.2 | 86.8 | – | – | – | – | – | higher metabolic rate | shows a suitable effect | shows a suitable effect
